Assay results taken from patent EP0168181A1, “Cyclic amides” (IMPERIAL CHEMICAL INDUSTRIES PLC, priority 1984, dated 1986).

System: aldose reductase
Experiment: in vivo aldose reductase inhibition in streptozotocin-diabetic rats (residual sorbitol in sciatic nerve)
Details: oral dose necessary to reduce residual sorbitol level in sciatic nerve of dosed diabetic rat to level similar to normal undosed rat; dosed daily 2-5 days
Description: Thus, rats are made diabetic (as evidenced by severe glucosuria being present) by dosing with streptozotocin. The animals are then dosed daily with the test compound for 2-5 days. The animals are then killed 2-4 hours after the final dose and the eye lenses and/or sciatic nerves are removed. After a standard work-up procedure the residual sorbitol levels in each tissue are determined by gas liquid chromatography after conversion to the poly-trimethylsilyl derivatives. Inhibition of aldose reductase in vivo is then assessed by comparing the residual sorbitol levels in tissues from the dosed diabetic group of rats with those of an undosed group of diabetic rats and an undosed, normal group of rats.
In the above in vivo test, an effective dose (ED) may be defined as the oral dose necessary to reduce the residual sorbitol level in the sciatic nerve of a dosed rat to a level similar to that in sciatic nerve in a normal, undosed-rat.

O=C1CC2(C(=O)N1)C(=O)N(Cc1ccc(Br)cc1F)c1c(Cl)cccc12 (single isomer, unassigned) [1'-(4-bromo-2-fluorobenzyl)-7'-chloro-spiro[pyrrolidine-3,3'-indoline]-2,2'5-trione]
oral ED: approximately 1.1 mg./kg.

O=C1CC2(C(=O)N1)C(=O)N(Cc1ccc(Br)cc1F)c1c(F)cccc12 (single isomer, unassigned) [l'-(4-bromo-2-fluorobenzyl)-7'-fluoro-spiro[pyrrolidine-3,3'-indolinel-2,2',5-trione]
oral ED: approximately 5.6 mg./kg.
